{"source": "paper PMC12152189", "about": "“Structure of a stripped-down and tuned-up far-red phycobilisome” (Communications Biology, 2025)", "test_in_all_cases": "cryo-EM structure, […] Å", "assay_type_in_all_cases": "binding", "key": {"ApcE2 (in FR-APC)": {"biological_target": "T1, ApcE2 (in FR-APC) (Chroococcidiopsis thermalis, UniProt K9TUP3)", "T1 construct": "gene Chro_1035; native purification from far-red-grown cells; intact bicylindrical FR-APC; ApcE2 in second (alpha-beta)3 trimer", "T1 sequence (K9TUP3 1-780)": "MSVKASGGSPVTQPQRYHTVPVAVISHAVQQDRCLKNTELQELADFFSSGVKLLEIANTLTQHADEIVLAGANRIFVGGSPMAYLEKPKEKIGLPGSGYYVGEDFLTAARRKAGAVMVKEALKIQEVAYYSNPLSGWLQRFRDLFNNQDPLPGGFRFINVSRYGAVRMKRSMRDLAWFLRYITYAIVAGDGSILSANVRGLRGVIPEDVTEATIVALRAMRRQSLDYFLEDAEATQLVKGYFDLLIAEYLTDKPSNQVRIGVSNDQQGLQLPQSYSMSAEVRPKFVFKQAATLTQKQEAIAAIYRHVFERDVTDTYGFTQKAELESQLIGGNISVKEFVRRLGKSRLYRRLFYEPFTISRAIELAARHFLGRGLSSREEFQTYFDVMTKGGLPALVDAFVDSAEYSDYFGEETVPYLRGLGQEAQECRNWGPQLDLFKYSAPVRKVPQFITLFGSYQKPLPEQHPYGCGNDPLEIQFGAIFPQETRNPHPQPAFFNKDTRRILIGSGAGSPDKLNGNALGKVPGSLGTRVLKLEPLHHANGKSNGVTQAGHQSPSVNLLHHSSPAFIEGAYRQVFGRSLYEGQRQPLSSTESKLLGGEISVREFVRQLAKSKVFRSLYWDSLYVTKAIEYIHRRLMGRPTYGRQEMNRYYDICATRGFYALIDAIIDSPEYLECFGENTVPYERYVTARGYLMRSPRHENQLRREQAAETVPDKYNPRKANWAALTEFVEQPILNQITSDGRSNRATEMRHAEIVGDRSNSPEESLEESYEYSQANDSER", "T1 sequence (K9TY40 1-169 partner)": "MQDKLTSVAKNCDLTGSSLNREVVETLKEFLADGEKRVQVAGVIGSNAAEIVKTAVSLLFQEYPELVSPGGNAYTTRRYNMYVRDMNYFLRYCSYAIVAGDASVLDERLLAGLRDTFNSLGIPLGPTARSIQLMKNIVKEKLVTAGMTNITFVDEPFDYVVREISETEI", "settings": "non-covalent (no Cys linkage); ZZZ,ssa; ApcF2 Thr76 H-bonds ring D; pH 6.5"}, "ApcB2 (in FR-APC)": {"biological_target": "T2, ApcB2 (in FR-APC) (Chroococcidiopsis thermalis, UniProt K9TVG8)", "T2 construct": "gene Chro_1033; native purification from far-red-grown cells; intact bicylindrical FR-APC; ApcC contacts the proximal ApcB2 bilin only; with Far-red allophycocyanin alpha subunit ApcD5", "T2 sequence (K9TVG8 1-161)": "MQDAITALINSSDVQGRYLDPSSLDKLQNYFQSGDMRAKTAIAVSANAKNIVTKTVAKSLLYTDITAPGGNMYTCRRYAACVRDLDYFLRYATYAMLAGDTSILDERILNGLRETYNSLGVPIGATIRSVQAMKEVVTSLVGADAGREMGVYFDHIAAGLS", "T2 sequence (K9U510 1-67 partner)": "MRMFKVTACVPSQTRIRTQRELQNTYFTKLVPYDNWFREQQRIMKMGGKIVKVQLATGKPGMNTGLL", "settings": "covalent; several sites, proximal (with ApcC) and distal (without ApcC); pH 6.5"}, "ApcF2 (in FR-APC)": {"biological_target": "T3, ApcF2 (in FR-APC) (Chroococcidiopsis thermalis, UniProt K9TY40)", "T3 construct": "gene Chro_1766; native purification from far-red-grown cells; intact bicylindrical FR-APC; heterodimer with ApcE2; with Far-red phycobilisome core-membrane linker protein ApcE2 (phycobiliprotein ApcE)", "T3 sequence (K9TY40 1-169)": "T1 sequence (K9TY40 1-169 partner)", "T3 sequence (K9TUP3 1-780 partner)": "T1 sequence (K9TUP3 1-780)", "settings": "non-covalent (no Cys linkage); ZZZ,ssa; Arg77 and Arg84 contact propionates; pH 6.5"}}, "data": [{"smiles": "C/C=C1/C(=C/c2[nH]c(/C=C3N=C(/C=C4\\NC(=O)C(CC)=C4C)C(C)=C\\3CCC(=O)O)c(CCC(=O)O)c2C)NC(=O)[C@@H]1C", "note": "[phycocyanobilin]", "values": [{"measurement": "cryo-EM structure, 2.51 Å", "setting": "ApcE2 (in FR-APC)", "value": "the bilin pigments in ApcE2 and ApcF2 are non-covalently bound"}, {"measurement": "cryo-EM structure, 2.51 Å", "setting": "ApcB2 (in FR-APC)", "value": "ApcB2 is represented in green while phycocyanobilin is represented in blue"}, {"measurement": "cryo-EM structure, 2.51 Å", "setting": "ApcF2 (in FR-APC)", "value": "in ApcF2 the pigment is in ZZZ,ssa conformation"}]}]}
